Assay results reported in ChEMBL document CHEMBL5154827, “Discovery of S-217622, a Noncovalent Oral SARS-CoV-2 3CL Protease Inhibitor Clinical Candidate for Treating COVID-19” (J Med Chem, 2022).
pEC50: −log10 of the molar value.

Legend:
[1] = Elimination half life in Sprague-Dawley rat at 0.5 micromol/mL/kg, iv measured for 3 to 360 mins by LC-MS/MS analysis; assay type: ADME, organism-based; settings: in vivo, time 3-360 min, dose 0.5 µmol/kg, read-out: LambdaZ (converted)
NIH3T3 = assay: Phototoxicity in BALB/c mouse 3T3 fibroblast incubated for 1 hr by measuring neutral-red extraction from cells; assay type: toxicity, cell-based; settings: nih3t3, 1 h
[2] = target: Human immunodeficiency virus type 1 protease (Human immunodeficiency virus 1) (UniProt Q72874); assay: Inhibition of HIV-1 protease at 100 uM
Chymotrypsin [3] = target: T1, Chymotrypsin (Homo sapiens, UniProt Q99895+P17538+P40313+Q6GPI1); assay: Inhibition of human pancreas chymotrypsin using Suc-Ala-Ala-Pro-Phe-AMC as substrate preincubated for 15 mins incubated followed by addition of substrate measured after 60 mins by measuring amount of AMC formed by spectrofluorimetric method; assay type: protein assay
[4] = Antiviral activity against HCoV-OC43 infected in MRC5 cells assessed as inhibition of viral cytopathic effect measured after 42 hrs by real-time PCR method; assay type: functional, cell-based, Human coronavirus OC43; settings: Betacoronavirus 1, OC43, MRC5, 42 h
Chymotrypsin [5] = target: T1, Chymotrypsin; assay: Inhibition of human pancreas chymotrypsin at 100 uM using Suc-Ala-Ala-Pro-Phe-AMC as substrate preincubated for 15 mins incubated followed by addition of substrate measured after 60 mins by measuring amount of AMC formed by spectrofluorimetric method; assay type: protein assay; settings: time 75.0 min

CNC(=O)Cn1c(=O)[nH]/c(=N\c2cc3cn(C)nc3cc2Cl)n(Cc2cc(F)c(F)c(F)c2)c1=O
half-life [1]: 78 min

Cn1cnc(Cn2c(=O)[nH]/c(=N\c3cc4cn(C)nc4cc3Cl)n(Cc3cc(F)c(F)cc3F)c2=O)n1
Activity (NIH3T3): Non-Toxic | inhibition [2]: < 50% | IC50 (Chymotrypsin [3]): > 100 µM | pEC50 [4]: 7.13 | inhibition (Chymotrypsin [5]): < 50%

CNC(=O)Cn1c(=O)[nH]/c(=N\c2ccc(OC(F)F)cc2C)n(Cc2cc(F)c(F)c(F)c2)c1=O
half-life [1]: 126 min
